According to the Bradley open melting point set (2014):

With OC1CC2=C(CC=CC2)CC1O (configuration not stated) [1,2,3,4,5,8-hexahydronaphthalene-2,3-diol] the melting point was 121 °C.
Nc1ccc(C=C/C(=N/O)c2ccccc2)cc1 [4-[(3Z)-3-(hydroxyimino)-3-phenylprop-1-en-1-yl]aniline] showed a melting point of 139 °C.
Molecule CCC(C)(C)C [2,2-Dimethylbutane] has a melting point of -100 °C.
Molecule CN(C)[C@@H]1C(O)=C(C(N)=O)C(=O)[C@@]2(O)C(O)=C3C(=O)c4c(O)ccc(Cl)c4[C@@](C)(O)[C@H]3C[C@@H]12 [chlortetracycline] has a melting point of 168 °C.
For Cc1cc(C(O)=NCC(=N)O)c(C)n1-c1ccc(F)cc1 [OSM-S-19], the melting point was 194 °C.
Cc1nc(/C(C#N)=C\c2ccc(Cl)cc2Cl)sc1/N=N/c1ccc(F)cc1 showed a melting point of 139 °C.
Work on COc1ncccc1B(O)O [2-methoxypyridine-3-boronic acid] yielded a melting point of 137 °C.
Work on COC(=O)c1cccc(Cl)c1 [methyl 3-chlorobenzoate] yielded a melting point of 21 °C.
CCNc1ccccc1 [n-ethylaniline] gave a melting point of -63 °C.
In the case of O=C1OC(c2ccc(O)cc2)(c2ccc(O)cc2)c2ccccc21 [Phenolphthalein], the melting point is reported as 262 °C.
For CCCOC(=O)c1ccc(O)cc1 [Propyl 4-hydroxybenzoate], the melting point was 96 °C.
Nc1ccc(O)c2c1C(=O)c1ccccc1C2=O [1-amino-4-hydroxyanthraquinone] gave a melting point of 208 °C.
C=Cc1ccc(Cl)cc1 [4-chlorostyrene] gave a melting point of -16 °C.
CC(C)CC=CB(O)O [4-methyl-1-pentenylboronic acid] gave a melting point of 101 °C.
CCNc1nc(NC(C)(C)C)nc(SC)n1 [Terbutryn] showed a melting point of 105 °C.
Molecule O=C(CCc1ccccc1)/C(=N/O)c1ccccc1 [(1E)-1,4-diphenylbutane-1,2-dione 1-oxime] has a melting point of 130 °C.
Molecule CNCc1ccccc1 [N-benzylmethylamine] has a melting point of -55 °C.
CCOC(=O)c1cc(C)n(-c2ccc(C)cc2)c1C [OSM-S-30] gave a melting point of 61 °C.
With Nn1c(S)nnc1-c1ccc(Cl)cc1 [4H-1,2,4-triazole-3-thiol, 4-amino-5-(4-chlorophenyl)-] the melting point was 322 °C.
Molecule Cc1cccc2c1Cc1ccccc1-2 [1-Methylfluorene] has a melting point of 85 °C.
Molecule CCC(=O)c1ccccc1 [propiophenone] has a melting point of 18 °C.
With CCOc1ccc([N+](=O)[O-])cc1Br [2-bromo-4-nitrophenetole] the melting point was 55 °C.
CCCCC/C=C\C/C=C\CCCCCCCC(=O)O [linoleic acid] gave a melting point of -12 °C.
CC(=O)N[C@H]1[C@H](OC(C)=O)O[C@H](COC(C)=O)[C@@H](OC(C)=O)[C@@H]1OC(C)=O [beta-D-glucosamine pentaacetate] gave a melting point of 187 °C.
Work on Cc1ccc(Cl)c(Cl)c1 [3,4-dichlorotoluene] yielded a melting point of -15 °C.
With COC(=O)[C@H]1[C@@H](OC(=O)c2ccccc2)C[C@@H]2CC[C@H]1N2C [cocaine] the melting point was 98 °C.
In the case of CCCC1COC(c2ccc(C#N)cc2)OC1 (configuration not stated) [2-(4-cyanophenyl)-5-n-propyl-1,3-dioxane], the melting point is reported as 58 °C.
Work on Cc1c(N)c(=O)n(-c2ccccc2)n1C [4-aminoantipyrine] yielded a melting point of 108 °C.
COC(=O)c1cccc(O)c1 [methyl_3-hydroxybenzoate] showed a melting point of 74 °C.
For COc1cc(C=O)ccc1O [vanillin], the melting point was 82 °C.
With O=C1c2ccccc2C(=O)N1CCCCBr [N-(4-bromobutyl)phthalimide] the melting point was 79 °C.
CCCCCCC(O)CCCCCCCCCCC(=O)O (configuration not stated) [12-hydroxystearic acid] showed a melting point of 75 °C.
CC(CCC(=O)O)(c1ccc(O)cc1)c1ccc(O)cc1 [4,4-bis(4-hydroxyphenyl)valeric acid] showed a melting point of 173 °C.
For O=Cc1ccc(F)c(B(O)O)c1 [2-fluoro-5-formylbenzeneboronic acid], the melting point was 170 °C.
Work on O=[N+]([O-])c1cccc(O)c1 [m-nitrophenol] yielded a melting point of 98 °C.
With O=C(c1ccccc1)C(O)c1ccccc1 (configuration not stated) [Benzoin] the melting point was 137 °C.
For COC(=O)c1cc(C)[nH]n1 [1H-pyrazole-3-carboxylic acid, 5-methyl-, methyl ester], the melting point was 107 °C.
